# Data: patent publication US20230357354A1, “CD38-BINDING CD31 PEPTIDES AND USES THEREOF” (ENCEFA, priority 2020, published 2023)
# Experiments:
# [1] = biological target: recombinant His-tagged CD38 (Homo sapiens, UniProt P28907); assay: Pepscan-based ELISA of His-tagged CD38 on CD31 peptide arrays; type: binding; details: sample with the highest signal; for Value (binding intensity of His-tagged CD38), BET conformational peptide array: mimic type BET (β-turn mimic, mP2 CLIPS)
# Outline: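 Linear, single-loop and β-turn CLIPS-constrained peptide mimics tiled from sCD31 sequence were arrayed and incubated overnight at 4 °C with His-tagged CD38 (9 µg/mL and 20 µg/mL). Binding detected with HRP-conjugated antibody (1 h, 25 °C) and ABTS/H2O2, quantified after 1 h by CCD imaging (0–3000 mAU).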
# human Daudi cells = type: cell-based; details: for glucose uptake (2-NBDG fluorescence): glucose-deprived cells, 1 hour treatment (1 µM per figure legends; 10 µg/mL per method), 2-NBDG 500 µM 30 minutes; for effect of the C-terminal deletion or alanine substitution (relative to the parent peptide) on glucose uptake: parent SEQ ID NO: 6 (deletions) or SEQ ID NO: 8 (alanine scanning), 2-NBDG fluorescence
# Description: Human Daudi cells cultured in 75 cm^2 flask were centrifuged ( 300 g, 3 minutes), resuspended in warmed PBS supplemented with 10 % goat serum and seeded in 96-well microplate ( 100 µL, 2 × 10^6 cells/mL) in order to deprive cells from glucose. Cells were treated with test treatments (10 µg/mL) for 1 hour (37° C.). Cells were then incubated with 500 µM of the fluorescent and non-metabolizable glucose analog 2-NBDG ((2R,3R,4S,5R)-3,4,5,6-tetrahydroxy-2-[(7-nitro-2,1,3-benzoxadiazol-4-yl)amino]hexanal; Thermo Fischer) for 30 minutes at 37° C., and washed 4 times with PBS containing 10 % of goat serum. Images were acquired using a Zeiss microscope (20 X) and the relative fluorescence intensity of 30 cells was determined using Fiji.
# To determine the effect of test compounds on glucose uptake, we developed a cellular model based on the use of human Daudi cells, a cell line known to strongly express CD38.
# Human Daudi cells were plated in culture medium deprived of glucose and exposed to test treatments (peptides of Table 6) for 1 hour and then incubated with the non-metabolizable, fluorescent glucose 2-NBDG. After 30 minutes of incubation, cells were washed and imaged using a microscope. Fluorescence levels were determined using Fiji.
Substance,"Value (binding intensity of His-tagged CD38), BET conformational peptide array [1] [mAU]",glucose uptake (2-NBDG fluorescence) (human Daudi cells),also measured
275 (CKLKREKNSRPGNFVILEFPVC) [compound 275],833,,
276 (CLKREKNSRDPGFVILEFPVEC) [compound 276],817,,
277 (CSKVESSRISPGSSIVVNITEC) [compound 277],839,,
278 (CESSRISKVSPGVVNITELFSC) [compound 278],637,,
279 (CPANFTIQKEPGIVSQTQDFTC) [compound 279],461,,
280 (CQIVVSEMLSPGRISYDAQFEC) [compound 280],417,,
281 (CIVVSEMLSQPGISYDAQFEVC) [compound 281],414,,
282 (CVVSEMLSQPPGSYDAQFEVIC) [compound 282],635,,
283 (CLSEVLRVKVPGPVDEVQISIC) [compound 283],601,,
284 (CEVLRVKVIAPGDEVQISILSC) [compound 284],447,,
291 (CNFVILEFC) [compound 291],,,"Value (binding intensity of His-tagged CD38), LOOP7 conformational peptide array ([1]; mimic type LOOP7 (single loop, mP2 CLIPS)): 1186 mAU"
"FELIVFN (Scramble peptide) [SEQ ID NO: 285, scramble peptide containing the same amino acid residues as NFVILEF in a different order]",,not able to increase glucose uptake,
FVILEFP [SEQ ID NO: 292],,failed to reproduce the effect of sCD31,
HFVILEFP [SEQ ID NO: 304],,impact the glucose uptake-increasing activity of the peptide,
NDVILEFP [SEQ ID NO: 310],,impact the glucose uptake-increasing activity of the peptide,
NFAILEFP [SEQ ID NO: 295],,,effect of the C-terminal deletion or alanine substitution (relative to the parent peptide) on glucose uptake (human Daudi cells): had no effect on glucose uptake

Substance,"Value (binding intensity of His-tagged CD38), BET conformational peptide array [1] [mAU]",glucose uptake (2-NBDG fluorescence) (human Daudi cells),also measured
NFVALEFP [SEQ ID NO: 296],,"slightly decreased the activity of the peptide, although it remained overall active",
NFVDLEFP [SEQ ID NO: 315],,impact the glucose uptake-increasing activity of the peptide,
NFVFLEFP [SEQ ID NO: 311],,still active,
NFVHLEFP [SEQ ID NO: 314],,impact the glucose uptake-increasing activity of the peptide,
NFVIAEFP [SEQ ID NO: 297],,"slightly decreased the activity of the peptide, although it remained overall active",
NFVIDEFP [SEQ ID NO: 319],,impact the glucose uptake-increasing activity of the peptide,
NFVIFEFP [SEQ ID NO: 317],,"increased glucose uptake, even more efficiently than SEQ ID NO: 297",
NFVIHEFP [SEQ ID NO: 318],,impact the glucose uptake-increasing activity of the peptide,
NFVILAFP [SEQ ID NO: 298],,,effect of the C-terminal deletion or alanine substitution (relative to the parent peptide) on glucose uptake (human Daudi cells): had no effect on glucose uptake
NFVILEAP [SEQ ID NO: 299],,,effect of the C-terminal deletion or alanine substitution (relative to the parent peptide) on glucose uptake (human Daudi cells): had no effect on glucose uptake
NFVILEFA [SEQ ID NO: 300],,,effect of the C-terminal deletion or alanine substitution (relative to the parent peptide) on glucose uptake (human Daudi cells): had no effect on glucose uptake
NFVITEFP [SEQ ID NO: 316],,impact the glucose uptake-increasing activity of the peptide,
NFVQLEFP [SEQ ID NO: 313],,still active,
NFVTLEFP [SEQ ID NO: 312],,still active,
NHVILEFP [SEQ ID NO: 309],,impact the glucose uptake-increasing activity of the peptide,
NSMLIEFT [SEQ ID NO: 320],,still able to increase glucose uptake,
